For assay [1], the system named is MCA-A24/Kb-WT1 tumor cells. The assay is described as follows: Test 5: enhancement of in vivo suppressive effect of vaccine on tumor growth. Also noted: species or system mouse. The settings on record: 27 days after tumor transplantation; vaccine 7 days before and 7 days after transplantation; compared with vehicle (group a); six mice per group; 100 ng Example 1 per body in group c; FIG. 2. As to the method: Effect for Enhancing the In Vivo Suppressive Effect of Vaccine for Growth of Tumor Vaccine
A suspension of 3-methylcholanthrene in corn oil was administered to a HLA-A*24:02 transgenic mouse intradermally at the ventral region. From the tumor generated at the administration site, HLA-A*2402/Kb-expressing tumor cells were obtained. Cell lines established by stably expressing WT1 antigen peptide (SEQ ID No. 2) in the cells (herein, also referred to as MCA-A24/Kb-WT1 tumor cells) were suspended in Hanks' Balanced Salt Solution and intradermally transplanted to the ventral region of HLA-A*24:02 transgenic mouse (5×10^5 cells per mouse). The mice made to receive a vehicle (Group a), a vaccine (Group b), or a vaccine containing the compound prepared in Example 1 (Group c) were classified. Six mice per group were used. Seven days before the tumor transplantation and seven days after the tumor transplantation, for the mice of Group a, a composition comprising water for injection was emulsified with an equal volume of Montanide ISA 51 VG and the emulsion was administered intradermally at the tail base area (0.1 mL per administration per mouse). […] The tumor diameter was measured 27 days after the tumor transplantation and the tumor volume was calculated.

Assay [2] relates to HLA-A*24:02 transgenic mouse. The assay is described as follows: Test 20: in vivo adjuvant activity, vaccine o (Compound of formula 5), IFNγ ELISPOT. The settings on record: added to vaccine o; 0.4 nmol per body, twice; FIG. 25. As to the method:
Evaluation of In Vivo Adjuvant Activity in HLA-A*24:02 Transgenic Mouse
The in vivo adjuvant activity of the compound of Example 1 was evaluated in the following procedure. To a vaccine prepared by mixing Compound of formula 5 prepared in Reference example 22 with a preliminarily-emulsified composition (hereinafter, referred to as “vaccine o”) was added the compound prepared in Example 1 to prepare a vaccine. The vaccine was administered to a HLA-A*24:02 transgenic mouse, and the adjuvant activity of the vaccine was evaluated by the method of testing antigen-specific CTL induction.
Specifically, Compound of formula 5 was dissolved in DMSO, and then diluted with water for injection to concentrations of Compound of formula 5 of 3 mg/mL. The prepared compound dilution was mixed with an equal volume of the preliminary emulsified composition prepared like Test 4 to give an emulsified product, vaccine o. Vaccine o was injected to mice intradermally at the tail base area in an amount for administering 300 μg of Compound of formula 5 per body. […] Then, after removal of the supernatant from the wells, stained spots on the ELISPOT plate were counted.

For assay [3], the system named is HLA-A*02:01 transgenic mouse. The assay is described as follows: Test 9: in vivo adjuvant activity, cocktail vaccine b, IFNγ ELISPOT. The settings on record: added to cocktail vaccine b; Peptide SEQ ID No. 1 or SEQ ID No. 4; 0.4 nmol per body, twice; FIG. 6 and 7. As to the method: Evaluation of In Vivo Adjuvant Activity in HLA-A*02:01 Transgenic Mouse
The in vivo adjuvant activity of the compounds prepared in Examples 8, 9, and 10 and the compound prepared in Reference example 12 was evaluated in the following procedure. To cocktail vaccine b comprising Compound of formula 4 prepared in Reference example 8 and Peptide SEQ ID No. 3 prepared in Reference example 3 with Montanide ISA51 VG was added the compound prepared in Example 8, 9, or 10, or the compound prepared in Reference example 12 to prepare each vaccine. The vaccine was administered to a HLA-A*02:01 transgenic mouse, and the adjuvant activity of each vaccine was evaluated by the method of testing antigen-specific CTL induction.
Specifically, Compound of formula 4 and Peptide SEQ ID No. 3 were dissolved in DMSO, and then diluted with water for injection to concentrations of Compound of formula 4 of 3 mg/mL and Peptide SEQ ID No. 3 of 2.25 mg/mL. The diluted peptide solution was mixed and emulsified with an equal volume of Montanide ISA 51 VG to prepare cocktail vaccine b. Cocktail vaccine b was injected to mice intradermally at the tail base area in an amount for administering 300 μg of Compound of formula 4 per body and 225 μg of Peptide SEQ ID No. 3 per body. Or, in the step of preparing cocktail vaccine b, the compound prepared in Example 8, 9, or 10, or the compound prepared in Reference example 12 was added to the diluted peptide solution to prepare a vaccine, and the prepared vaccine was injected to mice intradermally at the tail base area in an amount for administering 300 μg of Compound of formula 4 per body, 225 μg of Peptide SEQ ID No. 3 per body, and 0.4 nmol of the compound prepared in Example 8, 9, or 10, or the compound prepared in Reference example 12 per body. The administrations were done twice, which had one week interval. One week after the final administration, the mice were sacrificed with CO2 gas. Splenocytes were harvested from spleens removed from the mice. Like Test 4, Peptide (SEQ ID No. 1 or SEQ ID No. 4) was added to the splenocyte-containing ELISPOT plate at a final concentration of 10 μg/ml, and the plate was incubated overnight at 37° C. under an atmosphere of 5% CO2 to re-stimulate the peptide in vitro. Then, after removal of the supernatant from the wells, stained spots on the ELISPOT plate were counted.

Molecules are shown by their SMILES.

As for `CCCCCNc1nc(N)nc(C)c1Cc1ccc(CN(C)CCOCCOCCOCCOCCO)cc1OC` [Example 1, 1-(4-{[2-amino-4-methyl-6-(pentylamino)pyrimidin-5-yl]methyl}-3-methoxyphenyl)-2-methyl-5,8,11,14-tetraoxa-2-azahexadecan-16-ol·trifluoroacetate], in assay [1], the “growth of tumor cells (average tumor volume)” value is recorded as “more potently suppressed the growth of tumor cells”. For the same compound, in assay [2], the “CTL counts responsive to Peptide SEQ ID No. 2 compared with adding no compound” value is recorded as “more”.

As to `CCCCCNc1nc(N)nc(C)c1Cc1ccc(CNC)cc1OC` [Reference example 12, 5-({2-methoxy-4-[(methylamino)methyl]phenyl}methyl)-6-methyl-N^4-pentylpyrimidine-2,4-diamine, reference compound], the “CTL counts responsive to the peptide compared with adding no compound” value in assay [3] is listed as “more”.

Source of the values: patent publication US12427192B2, “Water soluble adjuvant and composition containing same” (Sumitomo Pharma Co., Ltd., priority 2019, dated 2025).
